The source made the active and inactive calls.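 The calls were made as follows: active = IC50 at or below 20 µM; inactive = the rest.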
The compounds below were run against Glucose-6-phosphate 1-dehydrogenase (Homo sapiens) (UniProt P11413) (assay: inhibition of recombinant human G6PD – biochemical, fluorescence, dose response, set 2, selectivity assay for P. falciparum G6PD inhibitor project, SAR follow-up (AID 588672)). Conditions: NADPH-diaphorase-resazurin fluorescence.
Sequence of Glucose-6-phosphate 1-dehydrogenase (Homo sapiens) (P11413 whole entry, looked up): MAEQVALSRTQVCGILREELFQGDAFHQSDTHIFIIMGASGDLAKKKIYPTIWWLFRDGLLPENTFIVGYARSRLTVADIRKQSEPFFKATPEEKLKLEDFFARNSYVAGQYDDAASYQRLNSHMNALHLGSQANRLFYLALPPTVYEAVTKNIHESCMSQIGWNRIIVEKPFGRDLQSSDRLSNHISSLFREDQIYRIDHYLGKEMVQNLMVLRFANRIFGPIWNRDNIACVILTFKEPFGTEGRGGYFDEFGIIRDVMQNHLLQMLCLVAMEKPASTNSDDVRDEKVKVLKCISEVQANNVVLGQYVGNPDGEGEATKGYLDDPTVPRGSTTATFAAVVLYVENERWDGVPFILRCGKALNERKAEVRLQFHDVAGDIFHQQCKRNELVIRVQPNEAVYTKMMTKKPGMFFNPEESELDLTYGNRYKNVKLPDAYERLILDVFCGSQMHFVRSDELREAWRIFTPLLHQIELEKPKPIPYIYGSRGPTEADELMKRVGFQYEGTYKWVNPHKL
`O=C1Nc2cc(C(=O)NCc3ccccc3)ccc2S/C1=C\c1ccccc1F` was tested, and the IC50 was > 80 µM (inactive). `O=C1COc2ccc(C(=O)NCCN3CCCCC3)cc2N1` was tested, and the IC50 was > 80 µM (inactive). For `CCN(CC)CCNC(=O)c1ccc2c(c1)NC(=O)c1ccccc1O2`, the IC50 was > 80 µM (inactive). In the case of `CCN1CCCC1CNC(=O)c1ccc2c(c1)NC(=O)/C(=C/c1ccccc1C)S2` (stereo not given), the IC50 is reported as > 80 µM (inactive). In the case of `O=C(NCCN1CCCCC1)c1ccc2c(c1)NC(=O)c1ccccc1O2`, the IC50 is reported as > 80 µM (inactive). In the case of `O=C1COc2ccc(C(=O)NCCN3CCOCC3)cc2N1`, the IC50 is reported as > 80 µM (inactive). For `CCN(CC)CCNC(=O)c1ccc2c(c1)NC(=O)CO2`, the IC50 was > 80 µM (inactive). With `CN(C)CCNC(=O)c1ccc2c(c1)NC(=O)c1ccccc1O2` the IC50 was > 80 µM (inactive). With `CN(C)CCNC(=O)c1ccc2c(c1)NC(=O)CO2` the IC50 was > 80 µM (inactive). For `CCN1CCCC1CNC(=O)c1ccc2c(c1)NC(=O)/C(=C/c1ccccc1)S2` (stereo not given), the IC50 was > 80 µM (inactive). With `O=C1Nc2cc(C(=O)NCCN3CCOCC3)ccc2S/C1=C\c1ccccc1F` the IC50 was > 80 µM (inactive). With `O=C1Nc2cc(C(=O)NCCN3CCCC3)ccc2S/C1=C\c1ccccc1F` the IC50 was > 80 µM (inactive). With `O=C1Nc2cc(C(=O)NCCN3CCCCC3)ccc2S/C1=C\c1ccccc1F` the IC50 was > 80 µM (inactive). With `CCN1CCC[C@H]1CNC(=O)c1ccc2c(c1)NC(=O)/C(=C/c1ccccc1F)S2` the IC50 was > 80 µM (inactive). With `O=C(NCCN1CCOCC1)c1ccc2c(c1)NC(=O)c1ccccc1O2` the IC50 was > 80 µM (inactive). With `CCN1CCCC1CNC(=O)c1ccc2c(c1)NC(=O)/C(=C/c1cccc3ccccc13)S2` (stereo not given) the IC50 was > 80 µM (inactive). In the case of `CCN1CCCC1CNC(=O)c1ccc2c(c1)NC(=O)CS2` (stereo not given), the IC50 is reported as > 80 µM (inactive). `CN1CCN(C(=O)c2ccc3c(c2)NC(=O)/C(=C/c2ccccc2Cl)S3)CC1` was tested, and the IC50 was > 80 µM (inactive). With `CCN1CCC[C@@H]1CNC(=O)c1ccc2c(c1)NC(=O)/C(=C/c1ccccc1F)S2` the IC50 was > 80 µM (inactive). `CCN1CCCC1CNC(=O)c1ccc2c(c1)NC(=O)c1ccccc1S2` (stereo not given) was tested, and the IC50 was > 80 µM (inactive). In the case of `O=C(NCCN1CCCC1)c1ccc2c(c1)NC(=O)c1ccccc1S2`, the IC50 is reported as > 80 µM (inactive). In the case of `O=C1COc2ccc(C(=O)NCCN3CCCC3)cc2N1`, the IC50 is reported as > 80 µM (inactive). For `CCN1CCCC1CNC(=O)c1ccc2c(c1)NC(=O)/C(=C/c1ccccc1F)S2` (stereo not given), the IC50 was > 80 µM (inactive). `CCN1CCCC1CNC(=O)c1ccc2c(c1)NC(=O)c1ccccc1O2` (stereo not given) was tested, and the IC50 was > 80 µM (inactive). In the case of `O=C(NCCN1CCCC1)c1ccc2c(c1)NC(=O)c1ccccc1O2`, the IC50 is reported as > 80 µM (inactive). `CCN1CCCC1CNC(=O)c1ccc2c(c1)NC(=O)CO2` (stereo not given) was tested, and the IC50 was > 80 µM (inactive). With `CCN(CC)CCNC(=O)c1ccc2c(c1)NC(=O)c1ccccc1S2` the IC50 was > 80 µM (inactive). For `CCN1CCCC1CNC(=O)c1ccc2c(c1)NC(=O)/C(=C/c1ccccc1OC)S2` (stereo not given), the IC50 was > 80 µM (inactive). In the case of `CN1CCCC1CCNC(=O)c1ccc2c(c1)NC(=O)/C(=C/c1ccccc1F)S2` (stereo not given), the IC50 is reported as > 80 µM (inactive). `CN(C)CCNC(=O)c1ccc2c(c1)NC(=O)/C(=C/c1ccccc1F)S2` was tested, and the IC50 was > 80 µM (inactive).
